Data set [1] has as its target T1, VR1 (Homo sapiens, UniProt Q8NER1). Nature of the data set: Calcium uptake assay, low pH (proton) stimulus. The class given is cell-based. On the set-up: expressed in transfected cells; host or cells: T-REx HEK 293 (Invitrogen), pcDNA5/TO vector. Conditions: HEK293; 0.3 μM compound; low pH agonist; HEK 293 cells expressing hVR1; read-out: Low pH % Inhib. @ 0.3 μM.
Target sequence in this assay (Q8NER1 whole entry): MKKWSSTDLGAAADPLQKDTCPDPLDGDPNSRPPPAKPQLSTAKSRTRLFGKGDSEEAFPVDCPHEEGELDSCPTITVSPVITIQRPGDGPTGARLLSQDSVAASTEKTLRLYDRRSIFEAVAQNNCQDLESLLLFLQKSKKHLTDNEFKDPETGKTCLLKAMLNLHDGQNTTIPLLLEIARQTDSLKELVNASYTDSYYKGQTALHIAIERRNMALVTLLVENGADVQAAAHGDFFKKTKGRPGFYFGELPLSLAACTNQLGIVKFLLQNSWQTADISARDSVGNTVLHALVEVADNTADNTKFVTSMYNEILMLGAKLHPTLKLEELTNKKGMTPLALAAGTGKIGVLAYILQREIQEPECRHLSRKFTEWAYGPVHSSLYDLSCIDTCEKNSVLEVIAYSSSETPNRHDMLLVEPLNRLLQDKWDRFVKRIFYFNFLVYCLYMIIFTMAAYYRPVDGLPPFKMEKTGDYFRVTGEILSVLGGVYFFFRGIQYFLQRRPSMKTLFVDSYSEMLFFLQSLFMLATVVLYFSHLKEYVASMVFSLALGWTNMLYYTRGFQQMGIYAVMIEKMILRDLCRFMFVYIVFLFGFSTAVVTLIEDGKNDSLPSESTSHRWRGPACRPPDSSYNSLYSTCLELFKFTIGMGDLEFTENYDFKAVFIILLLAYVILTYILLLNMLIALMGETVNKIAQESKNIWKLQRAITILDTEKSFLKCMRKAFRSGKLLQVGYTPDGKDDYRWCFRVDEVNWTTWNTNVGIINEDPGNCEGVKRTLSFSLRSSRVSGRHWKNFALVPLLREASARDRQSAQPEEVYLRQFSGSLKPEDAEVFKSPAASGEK

Data set [2] is described as follows: Half-life in human liver microsomes (HLM). The class given is in vitro ADME. The conditions noted are these: human, human liver microsomes (HLM, HL101), pH 7.4; 1 μM compound, 0.78 mg/mL HLM, 37° C., NADPH. The method, then:
Test compounds (1 μM) were incubated with 3.3 mM MgCl2 and 0.78 mg/mL HLM (HL101) in 100 mM potassium phosphate buffer (pH 7.4) at 37° C. on the 96-deep well plate. The reaction mixture was split into two groups, a non-P450 and a P450 group. NADPH was only added to the reaction mixture of the P450 group. An aliquot of samples of P450 group was collected at 0, 10, 30, and 60 min time point, where 0 min time point indicated the time when NADPH was added into the reaction mixture of P450 group. An aliquot of samples of non-P450 group was collected at −10 and 65 min time point. Collected aliquots were extracted with acetonitrile solution containing an internal standard. The precipitated protein was spun down in centrifuge (2000 rpm, 15 min). The compound concentration in supernatant was measured by LC/MS/MS system.
The half-life value was obtained by plotting the natural logarithm of the peak area ratio of compounds/internal standard versus time. The slope of the line of best fit through the points yields the rate of metabolism (k). This was converted to a half-life value using following equations:
Exemplary compounds of the invention were tested (1 μM), and were incubated with 3.3 mM MgCl2 and 0.78 mg/mL HLM (HL101) in 100 mM potassium phosphate buffer (pH 7.4) at 37° C. on the 96-deep well plate. The reaction mixture was split into two groups, a non-P450 and a P450 group. NADPH was only added to the reaction mixture of the P450 group. An aliquot of samples of the P450 group was collected at 0, 10, 30, and 60 minute time points, where the 0 minute time point indicated the time when NADPH was added into the reaction mixture of the P450 group. An aliquot of samples of the non-P450 group was collected at −10 and 65 minute time points. Collected aliquots were extracted with an acetonitrile solution containing an internal standard. The precipitated protein was spun down in a centrifuge (2000 rpm, 15 rain). The compound concentration in supernatant was measured by LC/MS/MS system. The half-life value (T1/2) was obtained by plotting the natural logarithm of the peak area ratio of compounds/internal standard versus time. The slope of the line of best fit through the points yields the rate of metabolism (k). This was converted to a half-life value using following equations: Half-life=ln 2/k.
On the technique in general: Liver microsomes are a subcellular fraction often used to study metabolism.

Data set [3] has as its target T1, VR1. Nature of the data set: Acid stimulation assay (FDSS 6000). It counts as cell-based. On the set-up: host or cells: unspecified cell suspension. Conditions: final assay buffer pH5.8, 15 min pre-incubation. The method, then: The Acid-induced changes in the intracellular calcium concentration were monitored using FDSS 6000 (Hamamatsu Photonics, Japan), a fluorometric imaging system. The cell suspension in resting buffer (HBSS supplemented with […], pH 7.4) was pre-incubated with varying concentrations of the test compounds or resting buffer (buffer control) for 15 minutes at room temperature under dark conditions. The cells were automatically added the stimulating solution (HBSS supplemented with MES, final assay buffer pH5.8) by the FDSS 6000.
Target sequence in this assay (Q8NER1 whole entry, species assumed): as the sequence (Q8NER1 whole entry) above

In data set [4] the target is T1, VR1. Nature of the data set: Calcium uptake assay, capsaicin stimulus. It counts as cell-based. Also noted: expressed in transfected cells; host or cells: T-REx HEK 293 (Invitrogen), pcDNA5/TO vector. The conditions noted are these: 3 nM compound.
Target sequence in this assay (Q8NER1 whole entry): as above
The target in another data set is T2, VR1 receptor (Rattus norvegicus, UniProt O35433).
T2 construct: endogenous in cells; host or cells: dorsal root ganglion (DRG) neurons
T2 sequence (O35433 whole entry): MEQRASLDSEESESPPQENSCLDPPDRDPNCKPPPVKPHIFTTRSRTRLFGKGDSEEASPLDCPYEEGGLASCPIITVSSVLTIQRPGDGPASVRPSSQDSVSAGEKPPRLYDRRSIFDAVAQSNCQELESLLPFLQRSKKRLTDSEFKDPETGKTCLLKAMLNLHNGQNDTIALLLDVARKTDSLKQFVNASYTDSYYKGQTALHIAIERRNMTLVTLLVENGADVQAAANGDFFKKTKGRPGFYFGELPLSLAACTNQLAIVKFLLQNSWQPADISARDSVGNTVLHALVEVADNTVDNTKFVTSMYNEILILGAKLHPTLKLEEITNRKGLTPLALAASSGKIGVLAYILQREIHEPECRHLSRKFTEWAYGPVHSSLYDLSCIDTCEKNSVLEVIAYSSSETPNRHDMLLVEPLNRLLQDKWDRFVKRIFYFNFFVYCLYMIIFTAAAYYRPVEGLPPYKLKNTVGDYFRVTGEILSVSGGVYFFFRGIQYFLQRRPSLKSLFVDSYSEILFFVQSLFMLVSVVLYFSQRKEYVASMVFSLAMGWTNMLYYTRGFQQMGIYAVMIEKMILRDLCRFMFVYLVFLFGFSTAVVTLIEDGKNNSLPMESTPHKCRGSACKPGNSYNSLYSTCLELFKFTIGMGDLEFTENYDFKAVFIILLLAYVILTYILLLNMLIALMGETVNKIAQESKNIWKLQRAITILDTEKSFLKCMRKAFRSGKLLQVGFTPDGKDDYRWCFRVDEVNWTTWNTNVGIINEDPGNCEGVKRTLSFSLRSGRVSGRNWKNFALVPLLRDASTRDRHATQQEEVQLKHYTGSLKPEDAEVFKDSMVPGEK
Briefly: Calcium imaging assay in DRG neurons, capsaicin stimulus. It counts as cell-based. Conditions: for inhibition of the Capsaicin induced intracellular calcium response (FIG. 1): 3 nM compound, DRG neurons. The method, then:
Therefore the functional activity of compounds at the VR1 receptor may be determined by measuring changes in intracellular calcium levels in neurons such as the dorsal root ganglion. […] Prior to assay, cells were loaded with 5 μg/ml Fura2 in normal saline solution at 37° C. for 40 minutes. Cells were then washed with normal saline to remove dye before commencement of the experiment. The plated neurons were transferred into a chamber on the stage of a Nikon eclipse TE300 microscope after which neurons were allowed to attain a stable fluorescence for about 10 minutes before beginning the experiment. The assay consists of two stages, a pretreatment phase followed by a treatment phase. First, a solution of the test compound was added from a multivalve perfusion system to the cells for 1 minute (pretreatment). […] Fura2 was excited at 340 and 380 nm to indicate relative calcium ion concentration. Changes in wavelength measurements were made throughout the course of the experiment. The fluorescence ratio was calculated by dividing fluorescence measured at 340 nm by that at 380 nm. Data were collected using Intelligent Imaging's Slidebook software.
For orientation: Calcium flux is commonly read through the fluorescence of an indicator in the cells.

From US20080300243A1, “Amide Derivatives as Ion-Channel Ligands and Pharmaceutical Compositions and Methods of Using the Same” (priority 2005, published 2008) come the findings set out here.

As for `O=C(Nc1cccc2cnccc12)c1ccc(C#CC(F)(F)F)cc1` [Compound 45], the inhibition at 0.3 µM on VR1 [1] turned out to be 99%. The molecule further had a half-life at 1 μM in data set [2] of 0.02 h. On VR1 [3], this molecule returned an IC50 of 1 nM. At VR1 [4], the “inhibition of the Capsaicin induced intracellular calcium response (FIGS. 2-6)” value is given as “significant inhibition”.
As to `C/C(=C\C(F)(F)F)c1ccc(C(=O)Nc2ccc3c(c2)OCCN3)cc1` [Compound 96], the inhibition at 0.3 µM at VR1 [1] was determined as 99%. For the same molecule, the half-life at 1 μM in data set [2] is 0.34 h. The molecule also had a concentration for half-maximal inhibition (IC50) at VR1 [3] of 3 nM. In addition, the “inhibition of the Capsaicin induced intracellular calcium response (FIGS. 2-6)” value on VR1 [4] was “significant inhibition”.
For `Cc1cc(/C=C/C(F)(F)F)ccc1C(=O)Nc1ccc2c(c1)OCCN2` [Compound 118], the inhibition at 0.3 µM at VR1 [1] is 103%. Also, the half-life at 1 μM in data set [2] was 1.03 h. On VR1 [3], this molecule returned a half-inhibitory concentration (IC50) of 5 nM.
As for `O=C(Nc1ccc2c(c1)OCC(CO)N2)c1ccc(C#CC2CC2)cc1F` (stereo not drawn) [Compound 127], the inhibition at 0.3 µM on VR1 [1] is 100%. The same molecule had a half-life at 1 μM in data set [2] of 1.37 h. On VR1 [3], the IC50 worked out at 5 nM.
For the molecule `Cc1cc(C#CC(C)(C)C)ccc1C(=O)Nc1ccc2c(c1)OCC(CO)N2` (stereo not drawn) [Compound 167], on VR1 [1], the inhibition at 0.3 µM stood at 107%. The molecule further registered a concentration for half-maximal inhibition (IC50) on VR1 [3] of 7 nM. Also, on VR1 [4], the “inhibition of the Capsaicin induced intracellular calcium response (FIGS. 2-6)” value is “significant inhibition”.
With `CC(C)(C)C#Cc1ccc(C(=O)Nc2ccc3c(c2)OC[C@H](CO)N3)c(F)c1` [Compound 172], on VR1 [1], the inhibition at 0.3 µM came out at 109%. In data set [2], the half-life at 1 μM is 1.24 h. Moreover, the IC50 against VR1 [3] was 3 nM.
Take `Cc1cc(/C=C/C(F)(F)F)ccc1C(=O)Nc1cnc2ccccc2c1` [Compound 187]: the inhibition at 0.3 µM on VR1 [1] was determined as 98%. The molecule also had a half-life at 1 μM in data set [2] of 9.47 h. Further, the IC50 against VR1 [3] was determined as 3 nM. Further, at VR1 [4], the “inhibition of the Capsaicin induced intracellular calcium response (FIGS. 2-6)” value is recorded as “significant inhibition”.
For the molecule `Cc1cc(/C=C/C(F)(F)F)ccc1C(=O)Nc1ccc2sc(CO)nc2c1` [Compound 225], the results for the “inhibition of the Capsaicin induced intracellular calcium response (FIG. 1)” value at VR1 receptor and at VR1 receptor (listed as compound 225) were “significant inhibition” and “reduced”, respectively. The inhibition at 0.003 µM on VR1 receptor (DRG neuron, read-out: % inhibition of capsaicin induced calcium influx) is above 75%. Further, the inhibition at 0.3 µM on VR1 [1] came out at 110%. Moreover, the half-life at 1 μM in data set [2] was 3.26 h. Besides, on VR1 [3], it took 0.9 nM to reach half-maximal inhibition (IC50).
As to `Cc1cc(/C=C/C(F)(F)F)ccc1C(=O)Nc1cnc2c(c1)OCC(CO)N2` (stereo not drawn) [Compound 233], on VR1 [1], the inhibition at 0.3 µM is 100%. For the same molecule, the 50% inhibitory concentration (IC50) against VR1 [3] turned out to be 3 nM. Moreover, the “inhibition of the Capsaicin induced intracellular calcium response (FIGS. 2-6)” value on VR1 [4] is “significant inhibition”.

A word on the half-life: it is the time in which the quantity being followed falls by half. Higher therefore signals slow loss. What is called IC50 is the concentration needed to halve the response being measured.
